Measured values taken from publication PMC5218480 (PLoS ONE, 2017).

Tested on: MV-4-11 cells
Experiment: Gene expression microarray analysis (Affymetrix PrimeView) and GSEA
Format: cell-based, human
Parameters: RFU PODN (11730768_x_at) / Fold change /veh PODN (11730768_x_at) / RFU LINC00158 (11744669_a_at) / Fold change /veh LINC00158 (11744669_a_at) / RFU DUSP10 (11751237_a_at) / Fold change /veh DUSP10 (11751237_a_at) / RFU ID3 (11757404_x_at) / Fold change /veh ID3 (11757404_x_at) / RFU PLEKHG5 (11737974_s_at) / Fold change /veh PLEKHG5 (11737974_s_at) / RFU LRRC4B (11730491_at) / Fold change /veh LRRC4B (11730491_at) / RFU GIMAP4 (11747438_a_at) / Fold change /veh GIMAP4 (11747438_a_at) / RFU KRT8 (11758183_x_at) / Fold change /veh KRT8 (11758183_x_at) / RFU CNN1 (11734310_a_at) / Fold change /veh CNN1 (11734310_a_at) / RFU VPS37D (11726825_at) / Fold change /veh VPS37D (11726825_at) / RFU C10orf10 (11716522_x_at) / Fold change /veh C10orf10 (11716522_x_at) / RFU KIR2DL2 /// KIR2DL4 /// KIR2DL5A /// KIR2DL5B /// KIR2DS1 /// KIR2DS2 /// KIR2DS3 /// KIR2DS4 /// KIR3DL3 /// KIR3DL3 /// KIR3DS1 (11738374_at) / Fold change /veh KIR2DL2 /// KIR2DL4 /// KIR2DL5A /// KIR2DL5B /// KIR2DS1 /// KIR2DS2 /// KIR2DS3 /// KIR2DS4 /// KIR3DL3 /// KIR3DL3 /// KIR3DS1 (11738374_at) / RFU C1QL1 (11718748_at) / Fold change /veh C1QL1 (11718748_at) / RFU TMPRSS4 (11747572_a_at) / Fold change /veh TMPRSS4 (11747572_a_at) / RFU HAMP (11756126_x_at) / Fold change /veh HAMP (11756126_x_at) / RFU RNFT2 (11725882_a_at) / Fold change /veh RNFT2 (11725882_a_at) / RFU NR4A2 (11747474_a_at) / Fold change /veh NR4A2 (11747474_a_at) / RFU ABCC12 (11746883_a_at) / Fold change /veh ABCC12 (11746883_a_at) / RFU TMEM136 (11760407_x_at) / Fold change /veh TMEM136 (11760407_x_at) / RFU CLDN22 /// WWC2 (11732394_at) / Fold change /veh CLDN22 /// WWC2 (11732394_at) / RFU HLA-DPB1 (11760878_x_at) / Fold change /veh HLA-DPB1 (11760878_x_at) / RFU SPINT1 (11716480_a_at) / Fold change /veh SPINT1 (11716480_a_at) / RFU GAP43 (11754022_s_at) / Fold change /veh GAP43 (11754022_s_at) / RFU A4GNT (11735810_at) / Fold change /veh A4GNT (11735810_at) / RFU PRB3 (11715151_x_at) / Fold change /veh PRB3 (11715151_x_at) / RFU TUBB4B (11761932_at) / Fold change /veh TUBB4B (11761932_at) / RFU CAPN14 (11732068_a_at) / Fold change /veh CAPN14 (11732068_a_at) / RFU TMCC2 (11721928_a_at) / Fold change /veh TMCC2 (11721928_a_at) / RFU IRGQ (11745062_a_at) / Fold change /veh IRGQ (11745062_a_at) / RFU FAM174B (11720279_a_at) / Fold change /veh FAM174B (11720279_a_at) / RFU TMPRSS4 (11748680_a_at) / Fold change /veh TMPRSS4 (11748680_a_at) / RFU FAM212B (11763350_a_at) / Fold change /veh FAM212B (11763350_a_at) / RFU PLEKHG5 (11743358_a_at) / Fold change /veh PLEKHG5 (11743358_a_at) / RFU ZSCAN30 (11745921_a_at) / Fold change /veh ZSCAN30 (11745921_a_at) / RFU CMKLR1 (11741424_a_at) / Fold change /veh CMKLR1 (11741424_a_at) / RFU LOC101060620 /// MAPK8IP1 (11723275_at) / Fold change /veh LOC101060620 /// MAPK8IP1 (11723275_at) / RFU SPTSSB (11747773_x_at) / Fold change /veh SPTSSB (11747773_x_at) / RFU PRSS12 (11739890_at) / Fold change /veh PRSS12 (11739890_at) / RFU BIN1 (11741810_x_at) / Fold change /veh BIN1 (11741810_x_at) / RFU WNT11 (11732464_a_at) / Fold change /veh WNT11 (11732464_a_at) / RFU C10orf10 (11716521_a_at) / Fold change /veh C10orf10 (11716521_a_at) / RFU C5orf56 (11738089_at) / Fold change /veh C5orf56 (11738089_at) / RFU CYB561 (11721691_x_at) / Fold change /veh CYB561 (11721691_x_at) / RFU ANKRD19P (11752326_a_at) / Fold change /veh ANKRD19P (11752326_a_at) / RFU OR2T12 /// OR2T33 /// OR2T8 (11738714_s_at) / Fold change /veh OR2T12 /// OR2T33 /// OR2T8 (11738714_s_at) / RFU VCAN (11748164_a_at) / Fold change /veh VCAN (11748164_a_at) / RFU JSRP1 (11732532_at) / Fold change /veh JSRP1 (11732532_at) / RFU KRTAP10-11 (11738290_x_at) / Fold change /veh KRTAP10-11 (11738290_x_at) / RFU MYO3A (11730013_a_at) / Fold change /veh MYO3A (11730013_a_at) / RFU EBF3 (11725865_a_at) / Fold change /veh EBF3 (11725865_a_at) / RFU CAMK2N1 (11719241_x_at) / Fold change /veh CAMK2N1 (11719241_x_at) / RFU C5orf56 (11738088_a_at) / Fold change /veh C5orf56 (11738088_a_at) / RFU OLFML3 (11715873_a_at) / Fold change /veh OLFML3 (11715873_a_at) / RFU LOC100653217 /// NTM (11731650_a_at) / Fold change /veh LOC100653217 /// NTM (11731650_a_at) / RFU MAPK11 (11762145_a_at) / Fold change /veh MAPK11 (11762145_a_at) / RFU FIZ1 (11724087_x_at) / Fold change /veh FIZ1 (11724087_x_at) / RFU OASL (11726364_x_at) / Fold change /veh OASL (11726364_x_at) / RFU SOX15 (11748057_x_at) / Fold change /veh SOX15 (11748057_x_at) / RFU CD79A (11719716_a_at) / Fold change /veh CD79A (11719716_a_at) / RFU HIST1H1D (11736915_at) / Fold change /veh HIST1H1D (11736915_at) / RFU CASKIN2 (11723855_a_at) / Fold change /veh CASKIN2 (11723855_a_at) / RFU LOC730098 (11760151_x_at) / Fold change /veh LOC730098 (11760151_x_at) / RFU OR4N2 (11742367_at) / Fold change /veh OR4N2 (11742367_at) / RFU PRRT2 (11749266_a_at) / Fold change /veh PRRT2 (11749266_a_at) / RFU SNX32 (11753110_a_at) / Fold change /veh SNX32 (11753110_a_at) / RFU CDHR5 (11726645_a_at) / Fold change /veh CDHR5 (11726645_a_at) / RFU RCAN1 (11760418_a_at) / Fold change /veh RCAN1 (11760418_a_at) / RFU FAM167A (11723789_a_at) / Fold change /veh FAM167A (11723789_a_at) / RFU FAM26E (11764081_at) / Fold change /veh FAM26E (11764081_at) / RFU ISYNA1 (11749810_s_at) / Fold change /veh ISYNA1 (11749810_s_at) / RFU ACY1 (11761880_at) / Fold change /veh ACY1 (11761880_at) / RFU 11764098_at / Fold change /veh 11764098_at / RFU SAMD14 (11745864_x_at) / Fold change /veh SAMD14 (11745864_x_at) / RFU NPB (11741838_a_at) / Fold change /veh NPB (11741838_a_at) / RFU TMPRSS6 (11731388_a_at) / Fold change /veh TMPRSS6 (11731388_a_at) / RFU KRTAP10-2 (11738614_at) / Fold change /veh KRTAP10-2 (11738614_at) / RFU ARHGAP8 /// PRR5-ARHGAP8 (11727945_x_at) / Fold change /veh ARHGAP8 /// PRR5-ARHGAP8 (11727945_x_at) / RFU KRTAP5-7 /// NADSYN1 (11734609_at) / Fold change /veh KRTAP5-7 /// NADSYN1 (11734609_at) / RFU RASL12 (11751679_a_at) / Fold change /veh RASL12 (11751679_a_at) / RFU CDKN2B (11736163_a_at) / Fold change /veh CDKN2B (11736163_a_at) / RFU PRF1 (11729649_at) / Fold change /veh PRF1 (11729649_at) / RFU, ZNF638 /// ZNF638-IT1 / Fold change vs veh, ZNF638 /// ZNF638-IT1 / RFU, PANK3 / Fold change vs veh, PANK3 / RFU, SH3YL1 / Fold change vs veh, SH3YL1 / RFU, ZEB2 / Fold change vs veh, ZEB2 / RFU, NRIP1 / Fold change vs veh, NRIP1 / RFU, PTTG1IP / Fold change vs veh, PTTG1IP / RFU, CAPN2 / Fold change vs veh, CAPN2 / RFU, MED14 / Fold change vs veh, MED14 / RFU, SNORA58 / Fold change vs veh, SNORA58 / RFU, C1orf63 / Fold change vs veh, C1orf63 / RFU, LRRFIP1 / Fold change vs veh, LRRFIP1 / RFU, NDUFAF7 / Fold change vs veh, NDUFAF7 / RFU, SLC12A2 / Fold change vs veh, SLC12A2 / RFU, IBTK / Fold change vs veh, IBTK / RFU, ESF1 / Fold change vs veh, ESF1 / Fold change vs veh, TMEM50B / RFU, TAOK1 / Fold change vs veh, TAOK1 / RFU, ACBD3 / Fold change vs veh, ACBD3 / RFU, TMA16 / Fold change vs veh, TMA16 / RFU, RWDD3 / Fold change vs veh, RWDD3 / RFU, BCAT1 / Fold change vs veh, BCAT1 / RFU, EDEM3 / Fold change vs veh, EDEM3 / RFU, TMEM33 / Fold change vs veh, TMEM33 / RFU, WDR75 / Fold change vs veh, WDR75 / RFU, AHCTF1 / Fold change vs veh, AHCTF1 / RFU, TFRC / Fold change vs veh, TFRC / RFU, ZDHHC17 / Fold change vs veh, ZDHHC17 / RFU, NOM1 / Fold change vs veh, NOM1 / RFU, ARL8B / Fold change vs veh, ARL8B / RFU, ZBTB11 / Fold change vs veh, ZBTB11 / RFU, TAMM41 / Fold change vs veh, TAMM41 / RFU, KIAA1704 /// LOC100996395 / Fold change vs veh, KIAA1704 /// LOC100996395 / RFU, ING1 / Fold change vs veh, ING1 / RFU, TRMT61B / Fold change vs veh, TRMT61B / RFU, FUBP3 / Fold change vs veh, FUBP3 / RFU, TP53 / Fold change vs veh, TP53 / RFU, TNKS2 / Fold change vs veh, TNKS2 / RFU, ZFP14 / Fold change vs veh, ZFP14 / RFU, ACTR2 / Fold change vs veh, ACTR2 / RFU, PPP3R1 / Fold change vs veh, PPP3R1 / RFU, PIK3R1 / Fold change vs veh, PIK3R1 / RFU, HNRNPA1 / Fold change vs veh, HNRNPA1 / RFU, RNF170 / Fold change vs veh, RNF170 / RFU, ZNF28 / Fold change vs veh, ZNF28 / RFU, RNGTT / Fold change vs veh, RNGTT / RFU, OGT / Fold change vs veh, OGT / RFU, BRD1 / Fold change vs veh, BRD1 / RFU, MARS / Fold change vs veh, MARS / RFU, ZNF655 / Fold change vs veh, ZNF655 / RFU, FAHD1 / Fold change vs veh, FAHD1 / RFU, BDP1 / Fold change vs veh, BDP1 / RFU, LRRCC1 / Fold change vs veh, LRRCC1 / RFU, ARID1A / Fold change vs veh, ARID1A / RFU, ZNF146 / Fold change vs veh, ZNF146 / RFU, ZNF330 / Fold change vs veh, ZNF330 / RFU, GPN3 / Fold change vs veh, GPN3 / RFU, C9orf123 / Fold change vs veh, C9orf123 / RFU, N4BP2L2 / Fold change vs veh, N4BP2L2 / RFU, ARFIP1 / Fold change vs veh, ARFIP1 / RFU, FAM179B / Fold change vs veh, FAM179B / RFU, BCL10 / Fold change vs veh, BCL10 / RFU, UHRF1BP1L / Fold change vs veh, UHRF1BP1L / RFU, BET1 / Fold change vs veh, BET1 / RFU, CNOT2 / Fold change vs veh, CNOT2 / RFU, ZNF268 / Fold change vs veh, ZNF268 / Fold change vs veh, ZNF507 / RFU, DGCR2 / Fold change vs veh, DGCR2 / RFU, WDSUB1 / Fold change vs veh, WDSUB1 / Fold change vs veh, HSP90B1 /// MIR3652 / RFU, ADSS / Fold change vs veh, ADSS / RFU, GK / Fold change vs veh, GK / RFU, ZNF148 / Fold change vs veh, ZNF148 / RFU, TAF9 / Fold change vs veh, TAF9 / RFU, SLC1A5 / Fold change vs veh, SLC1A5 / RFU, SLMO2 / Fold change vs veh, SLMO2 / RFU, ABCC4 / Fold change vs veh, ABCC4 / RFU, LOC101060439 /// RAP1B / Fold change vs veh, LOC101060439 /// RAP1B / RFU, RFX7 / Fold change vs veh, RFX7 / RFU, GTPBP10 / Fold change vs veh, GTPBP10 / RFU, CNEP1R1 / Fold change vs veh, CNEP1R1 / RFU, BIVM-ERCC5 /// ERCC5 / Fold change vs veh, BIVM-ERCC5 /// ERCC5 / RFU, ILF3 / Fold change vs veh, ILF3 / RFU 11762660_at / Fold change /veh 11762660_at / RFU VCAN (11757783_s_at) / Fold change /veh VCAN (11757783_s_at) / RFU DDX43 (11728927_at) / Fold change /veh DDX43 (11728927_at) / RFU KRT8 (11758188_x_at) / Fold change /veh KRT8 (11758188_x_at) / RFU NKD1 (11759106_at) / Fold change /veh NKD1 (11759106_at) / RFU SRD5A1 (11742802_a_at) / Fold change /veh SRD5A1 (11742802_a_at) / RFU TPSAB1 /// TPSB2 (11721975_s_at) / Fold change /veh TPSAB1 /// TPSB2 (11721975_s_at) / RFU GSTM3 (11746129_a_at) / Fold change /veh GSTM3 (11746129_a_at) / RFU IL23R (11737362_x_at) / Fold change /veh IL23R (11737362_x_at) / RFU TMEM51 (11727254_a_at) / Fold change /veh TMEM51 (11727254_a_at) / RFU PIWIL2 (11732686_x_at) / Fold change /veh PIWIL2 (11732686_x_at) / RFU ORM1 (11744905_x_at) / Fold change /veh ORM1 (11744905_x_at) / RFU CCDC152 (11743942_at) / Fold change /veh CCDC152 (11743942_at) / RFU ECM1 (11717891_a_at) / Fold change /veh ECM1 (11717891_a_at) / RFU IL23R (11748794_a_at) / Fold change /veh IL23R (11748794_a_at) / RFU TNFAIP8L3 (11732012_x_at) / Fold change /veh TNFAIP8L3 (11732012_x_at) / RFU MBOAT4 (11741988_at) / Fold change /veh MBOAT4 (11741988_at) / RFU 11764193_at / Fold change /veh 11764193_at / RFU TMEM53 (11763286_at) / Fold change /veh TMEM53 (11763286_at) / RFU MAGEB2 (11727129_at) / Fold change /veh MAGEB2 (11727129_at) / RFU TMEM200A (11744735_a_at) / Fold change /veh TMEM200A (11744735_a_at) / RFU CCDC152 (11751479_a_at) / Fold change /veh CCDC152 (11751479_a_at) / RFU FAM211A (11726209_a_at) / Fold change /veh FAM211A (11726209_a_at) / RFU RGS16 (11746705_a_at) / Fold change /veh RGS16 (11746705_a_at) / RFU VCAN (11755009_s_at) / Fold change /veh VCAN (11755009_s_at) / RFU RHOB (11743442_s_at) / Fold change /veh RHOB (11743442_s_at) / RFU RGS16 (11720943_a_at) / Fold change /veh RGS16 (11720943_a_at) / RFU RGS16 (11720944_at) / Fold change /veh RGS16 (11720944_at) / RFU, VPS4B / Fold change vs veh, VPS4B / RFU, CREB1 / Fold change vs veh, CREB1 / RFU, DNAJC13 / Fold change vs veh, DNAJC13 / RFU, GNAQ / Fold change vs veh, GNAQ / RFU, CDK5R1 / Fold change vs veh, CDK5R1 / RFU, ZRANB3 / Fold change vs veh, ZRANB3 / RFU, CUL4A / Fold change vs veh, CUL4A / RFU, CCNY / Fold change vs veh, CCNY / RFU, UFL1 / Fold change vs veh, UFL1 / RFU, COG3 / Fold change vs veh, COG3 / RFU, DIAPH2 / Fold change vs veh, DIAPH2 / RFU, SKA2 / Fold change vs veh, SKA2 / RFU, AFF3 / Fold change vs veh, AFF3 / RFU, LMF1 / Fold change vs veh, LMF1 / RFU, IPO11 / Fold change vs veh, IPO11 / RFU, DFFB / Fold change vs veh, DFFB / RFU, FOXP1 / Fold change vs veh, FOXP1 / RFU, CARD8 / Fold change vs veh, CARD8 / RFU, STRN3 / Fold change vs veh, STRN3 / RFU, ADK / Fold change vs veh, ADK / RFU, RASSF2 / Fold change vs veh, RASSF2 / RFU, WIPF1 / Fold change vs veh, WIPF1 / RFU, LARP1B / Fold change vs veh, LARP1B / RFU, RASA1 / Fold change vs veh, RASA1 / RFU, RB1 / Fold change vs veh, RB1 / RFU, PPFIA1 / Fold change vs veh, PPFIA1 / RFU, MAT2A / Fold change vs veh, MAT2A / RFU, CCT5 / Fold change vs veh, CCT5 / RFU, WDR92 / Fold change vs veh, WDR92 / RFU, CUX1 / Fold change vs veh, CUX1 / RFU, TTC7A / Fold change vs veh, TTC7A / RFU, TMEM135 / Fold change vs veh, TMEM135 / RFU, DEPTOR / Fold change vs veh, DEPTOR / RFU, CPM / Fold change vs veh, CPM / RFU, DNAJB6 / Fold change vs veh, DNAJB6 / RFU, CACNA2D3 / Fold change vs veh, CACNA2D3 / RFU, DTX4 / Fold change vs veh, DTX4 / RFU, TFCP2 / Fold change vs veh, TFCP2 / RFU, GMCL1 /// GMCL1P1 / Fold change vs veh, GMCL1 /// GMCL1P1 / RFU, AEBP2 / Fold change vs veh, AEBP2 / RFU, SNHG1 /// SNORD22 /// SNORD25 /// SNORD26 /// SNORD27 /// SNORD28 /// SNORD29 /// SNORD31 / Fold change vs veh, SNHG1 /// SNORD22 /// SNORD25 /// SNORD26 /// SNORD27 /// SNORD28 /// SNORD29 /// SNORD31 / Fold change (Aza/veh), C12orf56 (ProbeSet 11735607_a_at) / Fold change (ACY-1035/veh), C12orf56 (ProbeSet 11735607_a_at) / Fold change (Aza/veh), FGFR1OP (ProbeSet 11751329_s_at) / Fold change (ACY-1035/veh), FGFR1OP (ProbeSet 11751329_s_at) / Fold change (Aza/veh), VPS36 (ProbeSet 11739960_a_at) / Fold change (ACY-1035/veh), VPS36 (ProbeSet 11739960_a_at) / RFU SYPL1 (11715823_x_at) / Fold change /veh SYPL1 (11715823_x_at) / RFU IGFBP7 (11715501_s_at) / Fold change /veh IGFBP7 (11715501_s_at) / RFU REEP3 (11722064_at) / Fold change /veh REEP3 (11722064_at) / RFU IGLL1 (11728026_x_at) / Fold change /veh IGLL1 (11728026_x_at): dose or concentration left out as unconfirmed
Conditions: ProbeSet 11758779_at; LIST B

SMILES: Nc1ccc(-c2cccs2)cc1NC(=O)c1ccc2c(c1)cc(C1CC1)n2CCN1CCOCC1 [ACY-1035]
- Fold change vs veh, TMEM50B: 0.95
